# Measurements reported in patent publication US20120128705A1, “C6ORF167 PEPTIDES AND VACCINES CONTAINING THE SAME” (OncoTherapy Science, Inc., priority 2009, published 2012).
# Ends that are not written are not given here.
# Columns and labels:
# Assay type in all cases: cell-based, human
# peptide-pulsed T2 [1] = test: IFN-gamma ELISPOT assay on CTLs induced with peptide (HLA-A*0201); settings: CTLs from HLA-A*0201 positive donor, 3 rounds of stimulation, day 21; vs control wells without peptide
# Text: Monocyte-derived dendritic cells (DCs) were used as antigen-presenting cells to induce cytotoxic T lymphocyte (CTL) responses against peptides presented on human leukocyte antigen (HLA). DCs were generated in vitro as described elsewhere (Nakahara S et al., Cancer Res 2003 Jul. 15, 63(14): 4112-8). Specifically, peripheral blood mononuclear cells (PBMCs) isolated from a normal volunteer (HLA-A*0201 positive) by Ficoll-Plaque (Pharmacia) solution were separated by adherence to a plastic tissue culture dish (Becton Dickinson) so as to enrich them as the monocyte fraction. The monocyte-enriched population was cultured in the presence of 1,000 U/ml of granulocyte-macrophage colony-stimulating factor (R&D System) and 1,000 U/ml of interleukin (IL)-4 (R&D System) in AIM-V Medium (Invitrogen) containing 2% heat-inactivated autologous serum (AS). After 7 days of culture, the cytokine-induced DCs were pulsed with 20 micro-g/ml of each of the synthesized peptides in the presence of 3 micro-g/ml of beta 2-microglobulin for 3 hrs at 37 degrees C. in AIM-V Medium. The generated cells appeared to express DC-associated molecules, such as CD80, CD83, CD86 and HLA class II, on their cell surfaces (data not shown). These peptide-pulsed DCs were then inactivated by X-irradiated (20 Gy) and mixed at a 1:20 ratio with autologous CD8+ T cells, obtained by positive selection with CD8 positive Isolation Kit (Dynal). These cultures were set up in 48-well plates (Corning); each well contained 1.5×10^4 peptide-pulsed DCs, 3×10^5 CD8+ T cells and 10 ng/ml of IL-7 (R&D System) in 0.5 ml of AIM-V/2% AS medium. Three days later, these cultures were supplemented with IL-2 (CHIRON) to a final concentration of 20 IU/ml. On days 7 and 14, the T cells were further stimulated with the autologous peptide-pulsed DCs. The DCs were prepared each time by the same way described above. CTL was tested against peptide-pulsed T2 cells after the 3rd round of peptide stimulation on day 21 (Tanaka H et al., Br J Cancer 2001 Jan. 5, 84(1): 94-9; Umano Y et al., Br J Cancer 2001 Apr. 20, 84(8): 1052-7; Uchida N et al., Clin Cancer Res 2004 Dec. 15, 10(24): 8577-86; Suda T et al., Cancer Sci 2006 May, 97(5): 411-9; Watanabe T et al., Cancer Sci 2005 August, 96(8): 498-506).
# (§1) To examine specific CTL activity, interferon (IFN)-gamma enzyme-linked immunospot (ELISPOT) assay and IFN-gamma enzyme-linked immunosorbent assay (ELISA) were performed. Specifically, peptide-pulsed T2 (1×10^4/well) was prepared as stimulator cells. Cultured cells in 48 wells were used as responder cells. IFN-gamma ELISPOT assay and IFN-gamma ELISA assay were performed under manufacture procedure.
# peptide-pulsed T2 [2] = test: IFN-gamma ELISA assay of CTL lines (HLA-A*0201); settings: target cells pulsed with corresponding peptide vs without peptide pulse
# Method: CTLs were expanded in culture using the method similar to the one described by Riddell et al. (Walter E A et al., N Engl J Med 1995 Oct. 19, 333(16): 1038-44; Riddell S R et al., Nat Med 1996 February, 2(2): 216-23). A total of 5×10^4 CTLs were suspended in 25 ml of AIM-V/5% AS medium with 2 kinds of human B-lymphoblastoid cell lines, inactivated by Mitomycin C, in the presence of 40 ng/ml of anti-CD3 monoclonal antibody (Pharmingen). One day after initiating the cultures, 120 IU/ml of IL-2 were added to the cultures. The cultures were fed with fresh AIM-V/5% AS medium containing 30 IU/ml of IL-2 on days 5, 8 and 11 (Tanaka H et al., Br J Cancer 2001 Jan. 5, 84(1): 94-9; Umano Y et al., Br J Cancer 2001 Apr. 20, 84(8): 1052-7; Uchida N et al., Clin Cancer Res 2004 Dec. 15, 10(24): 8577-86; Suda T et al., Cancer Sci 2006 May, 97(5): 411-9; Watanabe T et al., Cancer Sci 2005 August, 96(8): 498-506).
# as §1
# peptide-pulsed T2 [3] = test: IFN-gamma ELISA assay of CTL clones (HLA-A*0201); settings: clones by limiting dilution; target cells pulsed with peptide
# Method: The dilutions were made to have 0.3, 1, and 3 CTLs/well in 96 round-bottomed micro titer plate (Nalge Nunc International). CTLs were cultured with 1×10^4 cells/well of 2 kinds of human B-lymphoblastoid cell lines, 30 ng/ml of anti-CD3 antibody, and 125 U/ml of IL-2 in a total of 150 micro-l/well of AIM-V Medium containing 5% AS. 50 micro-1/well of IL-2 were added to the medium 10 days later so to reach a final concentration of 125 U/ml IL-2. CTL activity was tested on the 14th day, and CTL clones were expanded using the same method as described above (Uchida N et al., Clin Cancer Res 2004 Dec. 15, 10(24): 8577-86; Suda T et al., Cancer Sci 2006 May, 97(5): 411-9; Watanabe T et al., Cancer Sci 2005 August, 96(8): 498-506).
# as §1
Substance,Peptide specific CTL activity: IFN-gamma production by ELISPOT (peptide-pulsed T2 [1]),IFN-gamma production of CTL lines by ELISA (peptide-pulsed T2 [2]),IFN-gamma production of CTL clones by ELISA (peptide-pulsed T2 [3])
ALVRFFEAV [SEQ ID NO: 76],potent IFN-gamma production,potent IFN-gamma production,Potent IFN-gamma productions
FLCILAKVV [SEQ ID NO: 84],potent IFN-gamma production,potent IFN-gamma production,Potent IFN-gamma productions
FLLLaAVAEV (FLLLAAVAEV; not fully specified; printed as FLLLaAVAEV) [SEQ ID NO: 101],potent IFN-gamma production,potent IFN-gamma production,Potent IFN-gamma productions
FLLMyAQKNL (FLLMYAQKNL; not fully specified; printed as FLLMyAQKNL) [SEQ ID NO: 112],potent IFN-gamma production,potent IFN-gamma production,
FLTDsLELEL (FLTDSLELEL; not fully specified; printed as FLTDsLELEL) [SEQ ID NO: 111],potent IFN-gamma production,potent IFN-gamma production,Potent IFN-gamma productions
GLQNfFSLFL (GLQNFFSLFL; not fully specified; printed as GLQNfFSLFL) [SEQ ID NO: 110],potent IFN-gamma production,potent IFN-gamma production,Potent IFN-gamma productions
KLTRLLFNL [SEQ ID NO: 65],potent IFN-gamma production,potent IFN-gamma production,Potent IFN-gamma productions
LLCDlISLSL (LLCDLISLSL; not fully specified; printed as LLCDlISLSL) [SEQ ID NO: 123],potent IFN-gamma production,potent IFN-gamma production,
QQCVlFLHYV (QQCVLFLHYV; not fully specified; printed as QQCVlFLHYV) [SEQ ID NO: 113],potent IFN-gamma production,potent IFN-gamma production,Potent IFN-gamma productions
VLFLHYVKV [SEQ ID NO: 66],potent IFN-gamma production,potent IFN-gamma production,Potent IFN-gamma productions
WLVLeILYML (WLVLEILYML; not fully specified; printed as WLVLeILYML) [SEQ ID NO: 117],potent IFN-gamma production,potent IFN-gamma production,
